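Interpolation was linear, between the two tested concentrations surrounding the appropriate level; five concentrations were tested over 48 hours in 96-well plates. Abbreviation: GI50, concentration required for 50% inhibition of growth.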 Calls of active or inactive are those of the source. Rule as the data show it: active = GI50 up to about 1.1 µM and inactive = higher.
Legend:
Assay in all cases: NCI tumour cell line growth inhibition, 48 h
SK-MEL-2 = test system: SK-MEL-2
K562 = test system: K562
RPMI-8226 = test system: RPMI-8226
HOP-18 = test system: HOP-18
NCI-H522 = test system: NCI-H522
DMS-114 = test system: DMS-114
KM-20L2 = test system: KM-20L2
HOP-92 = test system: HOP-92
HCT-15 = test system: HCT-15
M14 = test system: M14
HOP-62 = test system: HOP-62
ACHN = test system: ACHN
UO-31 = test system: UO-31
SK-OV-3 = test system: SK-OV-3
A549 = test system: A549
SNB-19 = test system: SNB-19
RXF 393 = test system: RXF 393
SNB-75 = test system: SNB-75
SR = test system: SR
MDA-MB-231 = test system: MDA-MB-231

Structure (SMILES)	GI50 (SK-MEL-2)	GI50 (K562)	GI50 (RPMI-8226)	GI50 (HOP-18)	GI50 (NCI-H522)	GI50 (DMS-114)	GI50 (KM-20L2)	GI50 (HOP-92)	GI50 (HCT-15)	GI50 (M14)	GI50 (HOP-62)	GI50 (ACHN)	GI50 (UO-31)	GI50 (SK-OV-3)	GI50 (A549)	GI50 (SNB-19)	GI50 (RXF 393)	GI50 (SNB-75)	GI50 (SR)	GI50 (MDA-MB-231)
CC1=NN2C(c3ccc(C)cc3)=CSC2=NC(C)(C)C1	> 100 µM (inactive)	61.5 µM (inactive)	> 100 µM (inactive)	> 100 µM (inactive)	> 100 µM (inactive)	71 µM (inactive)	> 100 µM (inactive)	> 100 µM (inactive)	> 100 µM	> 100 µM (inactive)	> 100 µM (inactive)	> 100 µM (inactive)	> 100 µM (inactive)	> 100 µM (inactive)	> 100 µM (inactive)	> 100 µM (inactive)	> 100 µM (inactive)	> 100 µM (inactive)		
CC(NC(=O)C(=O)N/N=C1\C[C@@H](c2ccccc2)Nc2ccccc21)c1ccccc1 (stereo partly specified)	53 µM (inactive)			< 0.01 µM (active)	> 100 µM (inactive)	97.1 µM (inactive)	> 100 µM (inactive)	20 µM (inactive)		> 100 µM (inactive)	> 100 µM (inactive)	36.1 µM (inactive)	33 µM (inactive)		> 100 µM (inactive)	> 100 µM (inactive)	53.7 µM (inactive)	10.7 µM (inactive)		
CC(C)(C)c1cc(O)c2c(c1O)C(=O)CCC2		30.3 µM (inactive)	21.1 µM (inactive)	60.5 µM (inactive)		20.3 µM (inactive)	40.1 µM (inactive)	2.69 µM (inactive)	40.8 µM	34.9 µM (inactive)	22.8 µM (inactive)	50.2 µM (inactive)		40.5 µM (inactive)	35.9 µM (inactive)	32.7 µM (inactive)	19.1 µM (inactive)	42.4 µM (inactive)		
CC(=O)NNc1nc(C)c(C(/C=C/c2ccc(Cl)cc2)=N/NC(=O)C[N+](C)(C)C)s1	> 100 µM (inactive)	> 100 µM (inactive)		> 100 µM (inactive)	> 100 µM (inactive)	> 100 µM (inactive)	> 100 µM (inactive)	> 100 µM (inactive)	> 100 µM	> 100 µM (inactive)		> 100 µM (inactive)	> 100 µM (inactive)	> 100 µM (inactive)	> 100 µM (inactive)	> 100 µM (inactive)	> 100 µM (inactive)	> 100 µM (inactive)		
Cc1ccc(Nc2nc(C)c(C(/C=C/c3ccc4c(c3)OCO4)=N/Nc3ccc([N+](=O)[O-])cc3[N+](=O)[O-])s2)c([N+](=O)[O-])c1	28 µM (inactive)	14.3 µM (inactive)		7.69 µM (inactive)	14.2 µM (inactive)	13.3 µM (inactive)	33.9 µM (inactive)		25.8 µM	61.7 µM (inactive)	32.8 µM (inactive)	21.5 µM (inactive)	21.8 µM (inactive)	26.7 µM (inactive)	45.8 µM (inactive)	83 µM (inactive)	38 µM (inactive)	56.8 µM (inactive)	24.4 µM (inactive)	
N#CC(/C(CCCC(=O)Nc1cccc([N+](=O)[O-])c1)=N\NC(=O)c1c(O)ccc2ccccc12)c1nc2ccccc2s1 (stereo unspecified)	27.1 µM (inactive)	7.89 µM (inactive)		23.1 µM (inactive)	25.8 µM (inactive)	12.6 µM (inactive)	27 µM (inactive)	53.1 µM (inactive)		26.9 µM (inactive)	27.8 µM (inactive)	20.7 µM (inactive)	14.3 µM (inactive)	25.5 µM (inactive)	10.8 µM (inactive)	36.8 µM (inactive)	33.4 µM (inactive)	10.7 µM (inactive)	17.5 µM (inactive)	
COc1cc2c(cc1O)C(C)Cc1cc3c(cc1N(C)CC2)OCO3 (stereo unspecified)	4.44 µM (inactive)	2.8 µM (inactive)	4.09 µM (inactive)	10.5 µM (inactive)	2.18 µM (inactive)	3.54 µM (inactive)	12.4 µM (inactive)	4.66 µM (inactive)	3.94 µM	3.22 µM (inactive)	10.6 µM (inactive)	6.85 µM (inactive)	6.41 µM (inactive)	3.32 µM (inactive)	3.94 µM (inactive)	7.4 µM (inactive)	1.77 µM (inactive)	2.45 µM (inactive)	4.45 µM (inactive)	
CCC(=O)OC[n+]1ccc2c(C)c3[nH]c4ccc(OC)cc4c3c(C)c2c1	0.291 µM (active)	0.132 µM (active)	0.182 µM (active)	< 0.01 µM (active)		0.104 µM (active)	0.117 µM (active)	0.0556 µM (active)		0.333 µM (active)		0.0485 µM (active)			0.135 µM (active)	1.57 µM (inactive)	0.166 µM (active)	0.434 µM (active)	0.0134 µM (active)	
COc1ccc(C(=O)OC2C=COC(C)C2OC(=O)c2ccc(OC)cc2)cc1 (stereo unspecified)	17.5 µM (inactive)	17 µM (inactive)	8.22 µM (inactive)	27.2 µM (inactive)	16.5 µM (inactive)	17.5 µM (inactive)	27.6 µM (inactive)	17.5 µM (inactive)	14.9 µM	16.6 µM (inactive)	> 83.6 µM (inactive)	42.4 µM (inactive)	45.4 µM (inactive)	> 100 µM (inactive)	48.1 µM (inactive)	41.5 µM (inactive)	14.6 µM (inactive)	12.4 µM (inactive)	16.1 µM (inactive)	
[O-]/[N+](=C\c1ccccc1)[C@H](COCc1ccccc1)c1ccccc1	27.3 µM (inactive)	48.9 µM (inactive)	30.2 µM (inactive)	20.3 µM (inactive)	29.5 µM (inactive)	54.1 µM (inactive)	> 100 µM (inactive)	24.8 µM (inactive)			> 100 µM (inactive)	66.4 µM (inactive)	24.2 µM (inactive)	> 100 µM (inactive)	51.6 µM (inactive)	59.8 µM (inactive)	36.6 µM (inactive)	74.3 µM (inactive)		
CN(C)CCNC(=O)c1cccc2nc3c(Cl)cccc3nc12	5.22 µM (inactive)	2.31 µM (inactive)	4.23 µM (inactive)	> 30.7 µM (inactive)	14.3 µM (inactive)	3.57 µM (inactive)	5.52 µM (inactive)	2.84 µM (inactive)	4.08 µM	6.24 µM (inactive)	5.66 µM (inactive)	3.13 µM (inactive)	8.05 µM (inactive)	17.3 µM (inactive)	4.33 µM (inactive)	8.13 µM (inactive)	3.4 µM (inactive)	7.48 µM (inactive)	1.51 µM (inactive)	
O=C(O)CC/C(=N\Nc1nsc2ccccc12)c1ccc(Cl)cc1	36.5 µM (inactive)	23 µM (inactive)	11 µM (inactive)	4.19 µM (inactive)	34.5 µM (inactive)	25 µM (inactive)	41.1 µM (inactive)	24 µM (inactive)	21.1 µM	25.1 µM (inactive)	23.5 µM (inactive)	28.2 µM (inactive)	21.1 µM (inactive)	32.6 µM (inactive)	> 49.1 µM (inactive)	> 64 µM (inactive)	23.5 µM (inactive)	28.5 µM (inactive)		35.6 µM (inactive)
CCCCCCCCCCCCCCCCCCN(C)CC(COC)OP(=O)([O-])OCC[N+](C)(C)C (stereo unspecified)	14.4 µM (inactive)	9.42 µM (inactive)	0.635 µM (active)	1.85 µM (inactive)	1.43 µM (inactive)	2.84 µM (inactive)	2 µM (inactive)	1.17 µM (inactive)	3.14 µM	4.11 µM (inactive)	1.72 µM (inactive)	1.91 µM (inactive)	7.52 µM (inactive)	11.2 µM (inactive)	1.78 µM (inactive)	0.867 µM (active)	0.824 µM (active)	1.01 µM (active)	0.341 µM (active)	
COC(=O)C1N=CSCC1(C)O (stereo unspecified)	> 100 µM (inactive)	> 100 µM (inactive)	> 100 µM (inactive)	> 100 µM (inactive)		> 100 µM (inactive)	> 100 µM (inactive)	> 100 µM (inactive)	> 100 µM	> 100 µM (inactive)	> 100 µM (inactive)	> 100 µM (inactive)	> 100 µM (inactive)	> 100 µM (inactive)	> 100 µM (inactive)	> 100 µM (inactive)	> 100 µM (inactive)	> 100 µM (inactive)		
O=[N+]([O-])c1nccn1CC(O)c1ccccc1 (stereo unspecified)	> 100 µM (inactive)	> 100 µM (inactive)	> 100 µM (inactive)	> 100 µM (inactive)	> 100 µM (inactive)	> 100 µM (inactive)	> 100 µM (inactive)	> 100 µM (inactive)	> 100 µM	> 100 µM (inactive)	> 100 µM (inactive)	> 100 µM (inactive)	> 100 µM (inactive)	> 100 µM (inactive)	> 100 µM (inactive)	> 100 µM (inactive)	> 100 µM (inactive)	> 100 µM (inactive)		
COC(=O)[C@@]1(O)CC(C)C=C1C=O (stereo partly specified)	> 100 µM (inactive)	55 µM (inactive)	> 100 µM (inactive)	> 100 µM (inactive)	20 µM (inactive)	30.2 µM (inactive)	> 100 µM (inactive)	> 100 µM (inactive)	17.8 µM	> 100 µM (inactive)	> 100 µM (inactive)	> 100 µM (inactive)	> 100 µM (inactive)	> 100 µM (inactive)	24.6 µM (inactive)	> 100 µM (inactive)	15.8 µM (inactive)	> 100 µM (inactive)	55.3 µM (inactive)	
